Experimental data: patent publication US20250230165A1, “HETEROCYCLIC COMPOUNDS FOR USE IN THE TREATMENT OF CANCER” (ARTIOS PHARMA LIMITED, priority 2021, published 2025)

molecular target: T1, Human Polθ polymerase domain (aa1820-2590) (Homo sapiens, UniProt O75417); experiment: Polθ Polymerase Domain Kinact/KI Assay (PicoGreen); assay type: biochemical; details: 0.8 nM Polθ, 100 nM DNA substrate, kobs vs [I] fit for 2-step covalent inhibitor
T1 construct: Human Polθ polymerase domain (aa1820-2590) was expressed in E. coli; made in house; host or cells: E. coli
T1 sequence (O75417 1820-2590): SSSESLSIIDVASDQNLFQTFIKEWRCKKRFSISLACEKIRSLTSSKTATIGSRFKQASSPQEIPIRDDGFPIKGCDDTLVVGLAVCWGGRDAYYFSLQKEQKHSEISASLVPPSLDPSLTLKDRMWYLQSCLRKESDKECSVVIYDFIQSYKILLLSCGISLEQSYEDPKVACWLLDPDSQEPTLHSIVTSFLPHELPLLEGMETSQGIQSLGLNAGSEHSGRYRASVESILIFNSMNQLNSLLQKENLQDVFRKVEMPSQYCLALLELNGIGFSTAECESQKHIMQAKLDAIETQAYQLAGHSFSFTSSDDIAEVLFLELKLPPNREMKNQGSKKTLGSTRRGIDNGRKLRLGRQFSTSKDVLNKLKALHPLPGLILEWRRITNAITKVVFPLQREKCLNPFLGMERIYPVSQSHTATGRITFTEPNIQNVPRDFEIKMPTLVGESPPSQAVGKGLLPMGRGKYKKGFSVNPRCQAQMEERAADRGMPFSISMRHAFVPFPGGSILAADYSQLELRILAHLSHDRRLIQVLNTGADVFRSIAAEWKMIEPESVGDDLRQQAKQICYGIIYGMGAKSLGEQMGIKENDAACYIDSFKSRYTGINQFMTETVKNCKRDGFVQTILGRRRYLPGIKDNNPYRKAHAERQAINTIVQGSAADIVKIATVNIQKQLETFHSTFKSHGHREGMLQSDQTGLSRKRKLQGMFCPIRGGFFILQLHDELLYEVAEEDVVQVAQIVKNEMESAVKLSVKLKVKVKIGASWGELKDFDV
Experimental: Polθ Polymerase Domain Kinact/KI Assay
A PicoGreen assay was used to measure the Kinact and KI values of covalent compounds that inhibit the activity of Polθ in vitro.
Human Polθ polymerase domain (aa1820-2590) was expressed in E. coli, purified, aliquoted and stored at −80° C. until required. Polθ substrate was generated from a 1.2:1 mix of DNA II Short to DNA II Long to give a final concentration of […] substrate in annealing buffer (20 mM Tris pH 7.5, 50 mM NaCl). The substrate was heated in […] aliquots to 95° C. in a heating block for 5 min before the heating block switched off, the reaction left to cool to rt and stored at −20° C. until required.
Assay measurements were performed with 1× buffer comprising 25 mM Tris pH 7.5, 12.5 mM NaCl, […], 5% (v/v) glycerol, 0.01% v/v Triton x-100, 0.1 mg/ml BSA, 1 mM DTT. Test compounds were prepared by dilution in 100% DMSO to give a 12 μM intermediate stock of each (100× final top concentration). 100 nL of 23×1:1.5-fold serial dilutions and a DMSO only control were dispensed using the Tecan dispenser into Greiner 384 well black low volume plates (product code 784076). DMSO concentration was maintained at 1% of the final assay volume by back filling with DMSO.
2× Working stock of substrate (200 nM of DNA substrate and […] dNTPs) and enzyme ([…] PolΘ) were made up in assay buffer. 5 μL/well of both enzyme and substrate 2× solutions were dispensed using a Tempest dispenser (Formulatrix) into assay plates that had been pre-dispensed with compound to give a final assay concentration of 100 nM DNA substrate, […] dNTPs and 0.8 nM Polθ. To stop the reaction, […] of a solution containing 25 mM Tris-HCl pH 7.5 and 20 mM EDTA was added at […] (t=0, 2.5, 5, 7.5, 10, 12.5, 15, 20, 25, 30, 35, 40, 45, 50, 55 and 60 min) using the Tempest's time delay function. The plates were covered during the time course to prevent evaporation. After completing the assay, 5 μL of detection reagent (25 mM Tris-HCl pH 7.5 and 2.5% (v/v) PicoGreen) was dispensed into the wells using a Tempest liquid handler (Formulatrix) and plates subsequently read on the CLARIOstar Plus (BMG Labtech) using the default optical settings for fluorescein and the auto gain/focus settings.
All data analysis was carried out using GraphPad Prism V.8 (GraphPad Software Inc, San Diego, CA) Time course data for each inhibitor concentration was fitted to equation 1 to determine kobs values.^1 Any time points where the control (DMSO alone) reaction was no longer linear were excluded from the analysis. 1) Evaluation of Enzyme Inhibitors in Drug Discovery (Ch9), R. A Copeland, Wiley, 2nd Edition 2013.
A secondary plot of kobs vs [I] is used to determine the Kinact and KI parameters (for a 2-step covalent inhibitor) by fitting to equation 2.^1

Structure (SMILES)	Kinact/Kl [M⁻¹ s⁻¹]
C=C(CN(C)C)C(=O)N1Cc2ccc(CN3C[C@H]4CC(=O)N(c5cc(C(F)(F)F)cc(C)n5)[C@@H]4C(=O)N(C)c4cccc(F)c43)cc2C1 [Example 153, (3aR, 11aS)-5-((2-(2-((dimethylamino)methyl)acryloyl)isoindolin-5-yl)methyl)-6-fluoro-10-methyl-1-(6-methyl-4-(trifluoromethyl)pyridin-2-yl)-1,3a,4,5,10,11a-hexahydro-2H-benzo[b]pyrrolo[2,3-f][1,4]diazocine-2,11(3H)-dione]	1.51e+06
C/C=C(\CN(C)C)C(=O)Nc1ccc(CN2C[C@H]3CC(=O)N(c4cc(C(F)(F)F)cc(C)n4)[C@@H]3C(=O)N(C)c3cccc(C)c32)cc1 [Example 89, (E)-N-(4-(((3aR,11aS)-6,10-dimethyl-1-(6-methyl-4-(trifluoromethyl)pyridin-2-yl)-2,11-dioxo-1,2,3,3a,4,10,11,11a-octahydro-5H-benzo[b]pyrrolo[2,3-f][1,4]diazocin-5-yl)methyl)phenyl)-2-((dimethylamino)methyl)but-2-enamide]	2.4e+06
C=CC(=O)N1CCC[C@@H]1c1nc(CN2C[C@H]3CC(=O)N(c4cc(C(F)(F)F)cc(C)n4)[C@@H]3C(=O)N(C)c3cccc(C)c32)no1 [Example 270, (3aR,11aS)-5-((5-((R)-1-acryloylpyrrolidin-2-yl)-1,2,4-oxadiazol-3-yl)methyl)-6,10-dimethyl-1-(6-methyl-4-(trifluoromethyl)pyridin-2-yl)-1,3a,4,5,10,11a-hexahydro-2H-benzo[b]pyrrolo[2,3-f][1,4]diazocine-2,11(3H)-dione]	110000
C=CC(=O)N1CC2(C1)C(C)N(CCN1C[C@H]3CC(=O)N(c4cc(C(F)(F)F)cc(C)n4)[C@@H]3C(=O)N(C)c3cccc(F)c31)C[C@H]1COCCN12 (single isomer, unassigned) [Example 7]	410000
C#CC(=O)N1Cc2nc(CN3C[C@H]4CC(=O)N(c5cc(C(F)(F)F)cc(C)n5)[C@@H]4C(=O)N(C)c4cccc(C)c43)cn2C[C@H]1C (racemic) [Example 199, (3aR,11aS)-6,10-dimethyl-1-(6-methyl-4-(tri-fluoromethyl)pyr-idin-2-yl)-5-(((R/S)-6-methyl-7-propioloyl-5,6,7,8-tetrahydro-imidazo[1,2-a]pyr-azin-2-yl)methyl)-1,3a,4,5,10,11a-hexahydro-2H-benzo[b]pyrrolo [2,3-f][1,4]diazo-cine-2,11(3H)-dione]	1.38e+06
Cc1cc(C(F)(F)F)cc(N2C(=O)C[C@@H]3CN(Cc4ccc5c(c4)CN(C(=O)/C(Cl)=C/CN(C)C)C5)c4c(C)cccc4N(C)C(=O)[C@H]32)n1 [Example 255, (3aR,11aS)-5-((2-((Z)-2-chloro-4-(dimethylamino)but-2-enoyl)isoindolin-5-yl)methyl)-6,10-dimethyl-1-(6-methyl-4-(trifluoromethyl)pyridin-2-yl)-1,3a,4,5,10,11a-hexahydro-2H-benzo[b]pyrrolo[2,3-f][1,4]diazocine-2,11(3H)-dione]	980000
C=CC(=O)N1Cc2cnc(CN3C[C@H]4CC(=O)N(c5cc(C(F)(F)F)cc(C)n5)[C@@H]4C(=O)N(C)c4cccc(Cl)c43)nc2C1 [Example 278, (3aR,11aS)-5-((6-acryloyl-6,7-dihydro-5H-pyrrolo[3,4-d]pyrimidin-2-yl)methyl)-6-chloro-10-methyl-1-(6-methyl-4-(trifluoromethyl)pyridin-2-yl)-1,3a,4,5,10,11a-hexahydro-2H-benzo[b]pyrrolo[2,3-f][1,4]diazocine-2,11(3H)-dione]	770000

The next lines start with the values.

Kinact/Kl [M⁻¹ s⁻¹]	Structure (SMILES)
15000	C=CC(=O)N1CCN(c2cccc(N3C[C@H]4CC(=O)N(c5cc(C(F)(F)F)cc(C)n5)[C@@H]4C(=O)N(C)c4cccc(F)c43)n2)CC1 [Example 55, (3aR,11aS)-5-(6-(4-acryloylpiperazin-1-yl)pyridin-2-yl)-6-fluoro-10-methyl-1-(6-methyl-4-(trifluoromethyl)pyridin-2-yl)-1,3a,4,5,10,11a-hexahydro-2H-benzo[b]pyrrolo[2,3-f][1,4]diazocine-2,11(3H)-dione]
1.04e+06	C=CC(=O)N1CC2(CN(CCN3C[C@H]4CC(=O)N(c5cc(C(F)(F)F)cc(C)n5)[C@@H]4C(=O)N(C)c4cccc(F)c43)Cc3nccn32)C1 [Example 105, (3aR,11aS)-5-(2-(1-acryloyl-6′H-spiro[azetidine-3,5′-imidazo[1,2-a]pyrazin]-7′(8′H)-yl)ethyl)-6-fluoro-10-methyl-1-(6-methyl-4-(trifluoromethyl)pyridin-2-yl)-1,3a,4,5,10,11a-hexahydro-2H-benzo[b]pyrrolo[2,3-f][1,4]diazocine-2,11(3H)-dione]
400000	C=CC(=O)N1CC(O[C@H]2CN(CCN3C[C@H]4CC(=O)N(c5cc(C(F)(F)F)cc(C)n5)[C@@H]4C(=O)N(C)c4cccc(F)c43)C[C@@H]2O)C1 (relative stereo) [Example 11, (3aR,11aS)-5-(2-((rel-trans)-3-((1-acryloylazetidin-3-yl)oxy)-4-hydroxypyrrolidin-1-yl)ethyl)-6-fluoro-10-methyl-1-(6-methyl-4-(trifluoromethyl)pyridin-2-yl)-1,3a,4,5,10,11a-hexahydro-2H-benzo[b]pyrrolo[2,3-f][1,4]diazocine-2,11(3H)-dione]
610000	C=CC(=O)N1Cc2nc(CN3C[C@H]4CC(=O)N(c5cc(C(F)(F)F)cc(C)n5)[C@@H]4C(=O)N(C)c4cccc(C)c43)oc2C1 [Example 316, (3aR,11aS)-5-((5-acryloyl-5,6-di-hydro-4H-pyrrolo [3,4-d]oxazol-2-yl)-methyl)-6,10-dimethyl-1-(6-meth-yl-4-(trifluorometh-yl)pyridin-2-yl)-1,3a,4,5,10,11a-hexahydro-2H-benzo[b]pyrrolo [2,3-f][1,4]diazo-cine-2,11(3H)-dione]
430000	C=CC(=O)N1CC(c2nc(CN3C[C@H]4CC(=O)N(c5cc(C(F)(F)F)cc(C)n5)[C@@H]4C(=O)N(C)c4cccc(F)c43)n[nH]2)C1 [Example 98, (3aR,11aS)-5-((5-(1-acryloylazetidin-3-yl)-1H-1,2,4-triazol-3-yl)methyl)-6-fluoro-10-methyl-1-(6-methyl-4-(trifluoromethyl)pyridin-2-yl)-1,3a,4,5,10,11a-hexahydro-2H-benzo[b]pyrrolo[2,3-f][1,4]diazocine-2,11(3H)-dione]
1.08e+06	C=CC(=O)N1CC(N2CC[C@H](CN3C[C@H]4CC(=O)N(c5cc(C(F)(F)F)cc(C)n5)[C@@H]4C(=O)N(C)c4cccc(F)c43)C2)C1 [Example 213, (3aR,11aS)-5-(((S)-1-(1-acryloylazetidin-3-yl)pyrrolidin-3-yl)methyl)-6-fluoro-10-methyl-1-(6-methyl-4-(trifluoromethyl)pyridin-2-yl)-1,3a,4,5,10,11a-hexahydro-2H-benzo[b]pyrrolo [2,3-f][1,4] diazocine-2,11(3H)-dione]
